Data on two compounds can be found in patent USRE39030E1 (Eli Lilly and Company, priority 1997, dated 2006).

Where a name gives a salt, the structure may show the parent alone.

A short description of data set [1]: interaction of fluoxetine with lactose (reducing sugar) over time. It is filed as physicochemical. The following applies: room temperature and accelerated stability conditions (heat). The text has this:
When used in this description, the term “sugar” refers to a sugar other than a reducing sugar. A reducing sugar is a carbohydrate that reduces Fehling's (or Benedict's) or Tollens' reagent. All monosaccharides are reducing sugars as are most disaccharides with the exception of sucrose. One common sugar used frequently as a binding or filling agent is lactose. […] As discussed below, sucrose is a preferred sugar.

The conditions of data set [2]: 120 mg dosed biweekly; cited from earlier work.
The conditions of data set [3]: 60 mg once per week vs 20 mg per day; maintenance therapy after eight weeks of daily dosing; cited from earlier work.

Turning to `CNCCC(Oc1ccc(C(F)(F)F)cc1)c1ccccc1` (stereo not drawn) [fluoxetine, N-methyl-3-(p-trifluoromethylphenoxy)-3-phenylpropylamine], the interaction with lactose result in data set [1] is “interacts with lactose both at room temperature and under accelerated stability conditions (heat)”. In addition, in data set [2], the “effectiveness for treating recurrent brief depression” value is “ineffective”.

Turning to `CNCCC(Oc1ccc(C(F)(F)F)cc1)c1ccccc1` (stereo not drawn) [fluoxetine hydrochloride], the “effectiveness during maintenance therapy” value in data set [3] is “as effective as 20 mg per day”.
